Measurements from EP4559908A1, “HETEROARYL DERIVATIVE COMPOUND AND USE THEREOF” (S2CBio Inc., priority 2022, dated 2024).
Like-named read-outs stand apart in the source and are kept apart here.

Target: T1, human ANO6 (variant 5) (Homo sapiens, UniProt Q4KMQ2)
T1 construct: expressed in transfected cells; host or cells: Fischer rat thyroid (FRT) cells
T1 sequence (Q4KMQ2 1-931 isoform Q4KMQ2-2): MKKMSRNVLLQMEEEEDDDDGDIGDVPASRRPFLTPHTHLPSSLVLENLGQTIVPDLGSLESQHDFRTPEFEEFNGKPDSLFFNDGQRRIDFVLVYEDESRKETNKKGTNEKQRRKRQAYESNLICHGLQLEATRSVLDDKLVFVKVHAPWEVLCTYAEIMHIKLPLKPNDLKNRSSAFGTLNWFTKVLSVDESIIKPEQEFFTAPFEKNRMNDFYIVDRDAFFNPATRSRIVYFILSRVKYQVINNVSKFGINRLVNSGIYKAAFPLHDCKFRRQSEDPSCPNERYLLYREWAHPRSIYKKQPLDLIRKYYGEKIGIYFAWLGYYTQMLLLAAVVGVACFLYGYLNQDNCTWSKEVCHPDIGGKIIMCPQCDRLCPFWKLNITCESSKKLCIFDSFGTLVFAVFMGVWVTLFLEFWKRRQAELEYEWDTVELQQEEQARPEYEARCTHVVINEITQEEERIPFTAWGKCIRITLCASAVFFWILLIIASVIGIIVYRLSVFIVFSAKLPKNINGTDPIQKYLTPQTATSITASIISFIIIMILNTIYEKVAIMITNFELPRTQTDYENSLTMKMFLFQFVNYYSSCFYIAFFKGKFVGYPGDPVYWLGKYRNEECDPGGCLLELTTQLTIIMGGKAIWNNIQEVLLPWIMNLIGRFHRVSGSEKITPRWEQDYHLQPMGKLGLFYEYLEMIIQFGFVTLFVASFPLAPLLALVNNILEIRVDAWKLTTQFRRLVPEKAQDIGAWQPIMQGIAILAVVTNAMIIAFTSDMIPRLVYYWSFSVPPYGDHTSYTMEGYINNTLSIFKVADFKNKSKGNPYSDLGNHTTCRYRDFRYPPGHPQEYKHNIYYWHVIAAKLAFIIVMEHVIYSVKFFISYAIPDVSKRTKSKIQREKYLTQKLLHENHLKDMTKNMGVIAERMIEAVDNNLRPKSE
Test: Lact C2 assay (measuring phosphatidylserine externalization scramblase function)
Format: cell-based
Settings: FRT, FRT cells expressing human ANO6 (variant 5), ionomycin 10 µM, Lact-C2-GFP fluorescence, average of three tests; for inhibition at 0.05 µM: compound 50 nM, read-out: % Inhibition 50 nM
Summary of the method: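 Cells were pretreated 10 min with compound (50 nM, 100 nM, 1 µM; 1% DMSO), then given 10 µM ionomycin for 10 min. Surface phosphatidylserine was stained with 500 nM Lact-C2-GFP (10 min, 37 °C), fixed and imaged. Inhibition was scaled between untreated (100%) and ionomycin-alone (0%) wells.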

[1] = compound 1 µM, read-out: % Inhibition 1 µM

Compound | inhibition at 1 µM [1] | inhibition at 0.05 µM | inhibition at 1 µM (read-out: % Inhibition 1 µM, compound 1 µM)
COc1cc(-c2cccnn2)ccc1Nc1cccc(-c2nc3ccccc3[nH]2)c1 [Example 210, N-(3-(1H-benzo[d]imidazol-2-yl)phenyl)-2-methoxy-4-(pyridazin-3-yl)aniline] | 30 to 60% |  | 
CN(C)c1ccc2nc(-c3cccc(Nc4ccc(-c5cccnn5)cc4)c3)[nH]c2c1 [Example 217, N,N-dimethyl-2-(3-((4-(pyridazin-3-yl)phenyl)amino)phenyl)-1H-benzo[d]imidazol-6-amine] | > 60% | 30 to 60% | 
Brc1cc2[nH]c(-c3cccc(Nc4ccc(-c5cccnn5)cc4)c3)nc2cn1 [Example 218, 3-(6-bromo-1H-imidazo[4,5-c]pyridin-2-yl)-N-(4-(pyridazin-3-yl)phenyl)aniline] |  | 30 to 60% | 
c1cc(Nc2ccc(-c3cccnn3)cc2)cc(-c2nc3ncccc3[nH]2)c1 [Example 219, 3-(1H-imidazo[4,5-b]pyridin-2-yl)-N-(4-(pyridazin-3-yl)phenyl)aniline] | > 60% |  | 
c1ccc(COc2ccc3nc(-c4cccc(Nc5ccc(-c6cccnn6)cc5)c4)[nH]c3c2)cc1 [Example 222, 3-(6-(benzyloxy)-1H-benzo[d]imidazol-2-yl)-N-(4-(pyridazin-3-yl)phenyl)aniline] | > 60% | > 60% | 
COc1ccc2nc(-c3cccc(Nc4ccc(-c5cccnn5)cc4)c3)[nH]c2c1 [Example 223, 3-(6-methoxy-1H-benzo[d]imidazol-2-yl)-N-(4-(pyridazin-3-yl)phenyl)aniline] | > 60% | > 60% | 
Clc1cc2nc(-c3cccc(Nc4ccc(-c5cccnn5)cc4)c3)[nH]c2cc1Cl [Example 225, 3-(5,6-dichloro-1H-benzo[d]imidazol-2-yl)-N-(4-(pyridazin-3-yl)phenyl)aniline] |  | > 60% | 
Clc1ccc2nc(-c3cccc(Nc4ccc(-c5cccnn5)cc4)c3)[nH]c2c1 [Example 226, 3-(6-chloro-1H-benzo[d]imidazol-2-yl)-N-(4-(pyridazin-3-yl)phenyl)aniline] |  | > 60% | 
O=[N+]([O-])c1ccc2nc(-c3cccc(Nc4ccc(-c5cccnn5)cc4)c3)[nH]c2c1 [Example 227, 3-(6-nitro-1H-benzo[d]imidazol-2-yl)-N-(4-(pyridazin-3-yl)phenyl)aniline] | > 60% | > 60% | 
c1ccc(CNc2ccc3nc(-c4cccc(Nc5ccc(-c6cccnn6)cc5)c4)[nH]c3c2)cc1 [Example 229, N-benzyl-2-(3-((4-(pyridazin-3-yl)phenyl)amino)phenyl)-1H-benzo[d]imidazol-6-amine] | > 60% |  | 
FC(F)(F)Oc1ccc2nc(-c3cccc(Nc4ccc(-c5cccnn5)cc4)c3)[nH]c2c1 [Example 230, N-(4-(pyridazin-3-yl)phenyl)-3-(6-(trifluoromethoxy)-1H-benzo[d]imidazol-2-yl)aniline] | > 60% | > 60% | 
N#Cc1ccc2nc(-c3cccc(Nc4ccc(-c5cccnn5)cc4)c3)[nH]c2c1 [Example 231, 2-(3-((4-(pyridazin-3-yl)phenyl)amino)phenyl)-1H-benzo[d]imidazole-6-carbonitrile] | > 60% |  | 
FC(F)(F)Oc1cc2[nH]c(-c3cccc(Nc4ccc(-c5cccnn5)cc4)c3)nc2cn1 [Example 232, N-(4-(pyridazin-3-yl)phenyl)-3-(6-(trifluoromethoxy)-1H-imidazo[4,5-c]pyridin-2-yl)aniline] | > 60% | > 60% | 

More lines, now with the values ahead:

inhibition at 1 µM [1] | inhibition at 0.05 µM | inhibition at 1 µM (read-out: % Inhibition 1 µM, compound 1 µM) | Compound
> 60% | 30 to 60% |  | FC(F)(F)c1cnc2nc(-c3cccc(Nc4ccc(-c5cccnn5)cc4)c3)[nH]c2c1 [Example 234, N-(4-(pyridazin-3-yl)phenyl)-3-(6-(trifluoromethyl)-1H-imidazo[4,5-b]pyridin-2-yl)aniline]
> 60% | 30 to 60% |  | FC(F)(F)c1ccc2[nH]c(-c3cccc(Nc4ccc(-c5cccnn5)cc4)c3)nc2n1 [Example 235, N-(4-(pyridazin-3-yl)phenyl)-3-(5-(trifluoromethyl)-1H-imidazo[4,5-b]pyridin-2-yl)aniline]
> 60% | > 60% |  | FC(F)(F)c1cc2[nH]c(-c3cccc(Nc4ccc(-c5ccccn5)cn4)c3)nc2cn1 [Example 238, N-(3-(6-(trifluoromethyl)-1H-imidazo [4,5-c]pyridin-2-yl)phenyl)-[2,3'-bipyridin]-6'-amine]
> 60% | > 60% |  | FC(F)(F)c1cc2[nH]c(-c3cccc(Nc4ncc(-c5ccccn5)cn4)c3)nc2cn1 [Example 242, 5-(pyridin-2-yl)-N-(3-(6-(trifluoromethyl)-1H-imidazo[4,5-c]pyridin-2-yl)phenyl)pyrimidin-2-amine]
> 60% | 30 to 60% |  | FC(F)(F)c1cnc2nc(-c3cccc(Nc4ncc(-c5ccccn5)cn4)c3)[nH]c2c1 [Example 243, 5-(pyridin-2-yl)-N-(3-(6-(trifluoromethyl)-1H-imidazo[4,5-b]pyridin-2-yl)phenyl)pyrimidin-2-amine]
> 60% | 30 to 60% |  | FC(F)(F)c1ccc2[nH]c(-c3cccc(Nc4ncc(-c5ccccn5)cn4)c3)nc2n1 [Example 244, 5-(pyridin-2-yl)-N-(3-(5-(trifluoromethyl)-1H-imidazo[4,5-b]pyridin-2-yl)phenyl)pyrimidin-2-amine]
30 to 60% |  |  | Fc1ccc2nc(-c3cccc(Nc4ncc(-c5ncccn5)cn4)c3)[nH]c2c1 [Example 247, N-(3-(6-fluoro-1H-benzo[d]imidazol-2-yl)phenyl)-[2,5'-bipyrimidin]-2'-amine]
> 60% |  |  | Fc1cccnc1-c1ccc(Nc2cccc(-c3nc4ccc(C(F)(F)F)cc4[nH]3)c2)cc1 [Example 251, N-(4-(3-fluoropyridin-2-yl)phenyl)-3-(6-(trifluoromethyl)-1H-benzo[d]imidazol-2-yl)aniline]
> 60% | > 60% |  | Fc1cccc(-c2ccc(Nc3cccc(-c4nc5ccc(C(F)(F)F)cc5[nH]4)c3)cc2)n1 [Example 252, N-(4-(6-fluoropyridin-2-yl)phenyl)-3-(6-(trifluoromethyl)-1H-benzo[d]imidazol-2-yl)aniline]
> 60% | > 60% |  | Fc1ccc(-c2ccc(Nc3cccc(-c4nc5ccc(C(F)(F)F)cc5[nH]4)c3)cc2)nc1 [Example 253, N-(4-(5-fluoropyridin-2-yl)phenyl)-3-(6-(trifluoromethyl)-1H-benzo[d]imidazol-2-yl)aniline]
> 60% | > 60% |  | FC(F)(F)c1cc2[nH]c(-c3cccc(Nc4ccc(-c5cccnn5)cn4)c3)nc2cn1 [Example 254, 5-(pyridazin-3-yl)-N-(3-(6-(trifluoromethyl)-1H-imidazo[4,5-c]pyridin-2-yl)phenyl)pyridin-2-amine]
 |  | > 60% | c1ccc(-c2ccc(Nc3cccc(-c4nc5ccccc5[nH]4)c3)nn2)nc1 [Example 255, N-(3-(1H-benzo[d]imidazol-2-yl)phenyl)-6-(pyridin-2-yl)pyrimidin-3-amine]
> 60% |  |  | FC(F)(F)c1ccc2nc(-c3cccc(Nc4ccc(-c5ccccn5)nn4)c3)[nH]c2c1 [Example 256, 6-(pyridin-2-yl)-N-(3-(6-(trifluoromethyl)-1H-benzo[d]imidazol-2-yl)phenyl)pyridazin-3-amine]
